Measurements from patent US6887846B2, “Antimicrobial amino acid sequences derived from alpha-melanocyte-stimulating hormone” (priority 1999, dated 2005).
“Also recorded” adds a separate entry of the source.

What was measured:
[1] = test system: C. albicans (clinical isolate); experiment: Trial of melanocortin peptides on C. albicans viability (colony formation); type: cell-based; conditions: for reduction of C. albicans CFU at higher concentrations: up to 10^-4M; for C. albicans colony forming units (CFU): peptide 10^−15 to 10^−4M, 2 hours at 37° C., compared to controls
Protocol: S. aureus (ATCC 29213) and C. albicans (clinical isolate) were obtained from the collection of the Department of Microbiology, Ospedale Maggiore di Milano. C. albicans were maintained on Sabouraud'[…] periodically transferred to Sabouraud's agar plates and incubated for 48 hours at 28° C. To prepare stationary growth phase yeast, a colony was taken from the agar plate and transferred into 30 ml Sabouraud-dextrose broth and incubated for 72 hours at 32° C. Cells were centrifuged at 1000×g for 10 minutes and the pellet was washed twice with distilled water. Cells were counted and suspended in Hank's balanced salt solution (“HBSS”) to the desired concentration. […] Cells were then washed in cold distilled water and diluted with HBSS to a concentration of 100 organisms/ml. One ml aliquots were dispensed on blood agar plates and incubated for 48 hours at 37° C. Organism viability was estimated from the number of colonies formed. […] There were at least six replicates for each concentration of peptide. […] The reaction was stopped after 3 minutes by the addition of ice cold ethanol. cAMP was measured in duplicate using a commercial enzyme immunoassay (EIA) kit (Amersham, United Kingdom) after extraction via the liquid-phase method according to manufacturer's instructions.

S. aureus (ATCC 29213) = experiment: Trial of melanocortin peptides on S. aureus viability (colony formation); type: cell-based; conditions: peptide 10^−15 to 10^−4M, 2 hours at 37° C., compared to controls
Protocol: S. aureus (ATCC 29213) and C. albicans (clinical isolate) were obtained from the collection of the Department of Microbiology, Ospedale Maggiore di Milano. C. albicans were maintained on Sabouraud'[…] periodically transferred to Sabouraud's agar plates and incubated for 48 hours at 28° C. To prepare stationary growth phase yeast, a colony was taken from the agar plate and transferred into 30 ml Sabouraud-dextrose broth and incubated for 72 hours at 32° C. Cells were centrifuged at 1000×g for 10 minutes and the pellet was washed twice with distilled water. Cells were counted and suspended in Hank's balanced salt solution (“HBSS”) to the desired concentration. Viability, determined by the exclusion of 0.01% methylene blue, remained >98%. […] Cells were then washed in cold distilled water and diluted with HBSS to a concentration of 100 organisms/ml. One ml aliquots were dispensed on blood agar plates and incubated for 24 hours at 37° C. Organism viability was estimated from the number of colonies formed.

S. aureus = experiment: Influence on urokinase-induced growth enhancement of S. aureus; type: cell-based; conditions: peptide 10^−6M, urokinase 500 U, 4 hours at 37° C.; p<0.001 vs urokinase alone
Text: In experiments on S. aureus we determined the influence of α-MSH on urokinase-induced growth-enhancement. Hart, D. A., Loule, T., Krulikl, W., Reno, C., Staphylococcus Aureus Strains Differ in Their in Vitro Responsiveness to Human Urokinase: Evidence That Methicillin-resistant Strains Are Predominantly Nonresponsive to the Growth-enhancing Effects of Urokinase, Can. J. Microbiol. 42, 1024-31 (1966). […] Appropriate dilutions of S. aureus were dispensed on agar plates and colonies counted after 24 hours incubation at 37° C.

[2] = test system: C. albicans killing by human neutrophils; experiment: Trial of α-MSH peptides on C. albicans killing by human neutrophils; type: cell-based; conditions: 2 hours at 37° C., vs medium alone
Protocol: Venous blood (20 ml) from healthy volunteers was anticoagulated with heparin. Neutrophils were isolated using dextran sedimentation and Ficoll-Hypaque (Sigma Chemical Co., St. Louis, Mo., USA) centrifugation. Erythrocytes were lysed via hypotonic shock. Neutrophils represented at least 97% of the cell suspension. Cell viability, estimated by trypan blue exclusion, was >98%. Neutrophils were suspended to final concentration in HBSS. […] After incubation, the culture tubes were placed on ice to stop growth and extracellular organisms were washed twice with centrifugation at 1000×g at 4° C. A 2.5% sodium desoxycholate solution was added to the suspension and the tubes were shaken for 5 min. Cold distilled water was added to obtain a suspension of 10^6 cells/ml. Two 1/100 serial dilution in HBSS were made to obtain a final suspension of 100 cells/ml. Aliquots of 1 ml were dispensed on blood agar plates and incubated for 48 hours at 37° C. Colony forming units (“CFU”) were counted at the end of the incubation period. Experiments were run in triplicate and repeated using blood from 5 different donors.

cAMP = experiment: Trial of α-MSH peptides on cAMP accumulation in C. albicans; type: cell-based; conditions: 10^−6M; for cAMP content of C. albicans: 3 minutes at 37° C., permeabilized yeast; for increase in cAMP compared with forskolin: equimolar
Protocol: The reaction was stopped after 3 minutes by the addition of ice cold ethanol. cAMP was measured in duplicate using a commercial enzyme immunoassay (EIA) kit (Amersham, United Kingdom) after extraction via the liquid-phase method according to manufacturer's instructions. The effect of forskolin (10^−6M) on C. albicans colony formation was determined using the same procedures as for α-MSH peptides.

HIV-1 = conditions: acutely and chronically infected monocytes; cited from earlier work
[3] = vs α-MSH; cited from earlier work

ACTH (1-39): adrenocorticotropic hormone (1-39), melanocortin peptide (SYSMEHFRWGKPVGKKRRPVKVYPNGAEDESAEAFPLEF; Corticotropin; UniProt P01189 138-176, looked up) [reference compound]
relative potency in reducing C. albicans viability ([1]; 10^−6M): did not reduce C. albicans viability
reduction of C. albicans CFU at higher concentrations [1]: ineffective

ACTH (18-39): ACTH fragment (18-39) (CLIP) [reference compound]
relative potency in reducing C. albicans viability ([1]; 10^−6M): did not reduce C. albicans viability
reduction of C. albicans CFU at higher concentrations [1]: ineffective

HFRWGKPV (Ac-HFRWGKPV-NH2) [α-MSH (6-13)]
relative potency in reducing C. albicans viability ([1]; 10^−6M): most effective

KPV (Ac-Lys-Pro-Val-NH2) [α-MSH (11-13)]
S. aureus colony formation (CFU) (S. aureus (ATCC 29213)): significantly decreased S. aureus colony forming units; also recorded: inhibited S. aureus colony formation
urokinase-enhanced S. aureus colony formation (S. aureus): significantly inhibited this urokinase-enhancing effect; also recorded: significantly inhibited the enhancing effect of urokinase
relative potency in reducing C. albicans viability ([1]; 10^−6M): most effective
C. albicans colony forming units (CFU) [1]: significantly decreased C. albicans colony forming units; also recorded: greatly reduced
killing of C. albicans by human neutrophils [2]: enhanced killing of C. albicans by human neutrophils
cAMP content of C. albicans (cAMP): enhanced cAMP content in the yeast
increase in cAMP compared with forskolin (cAMP): same order of magnitude as that induced by equimolar forskolin

MEHFRWG (Ac-MEHFRWG-NH2) [α-MSH (4-10)]
inhibition of C. albicans CFU ([1]; 10^−6M): approximately 50%

NH2-Lys-Pro-Val-AcCys-CysAc-Val-Pro-Lys-NH2 [KPV dimer]
S. aureus colony formation (CFU) (S. aureus (ATCC 29213)): significantly decreased S. aureus colony forming units; also recorded: inhibited S. aureus colony formation
effectiveness against microbes compared with α-MSH (11-13) ([1]; S. aureus and C. albicans): at least as effective as α-MSH (11-13) against microbes
C. albicans colony forming units (CFU) [1]: significantly decreased C. albicans colony forming units; also recorded: inhibited C. albicans colony formation

SYSMEHFRWGKPV [α-MSH (1-13)]
S. aureus colony formation (CFU) (S. aureus (ATCC 29213)): significantly decreased S. aureus colony forming units; also recorded: inhibited S. aureus colony formation
urokinase-enhanced S. aureus colony formation (S. aureus): significantly inhibited this urokinase-enhancing effect; also recorded: significantly inhibited the enhancing effect of urokinase
C. albicans colony forming units (CFU) [1]: significantly decreased C. albicans colony forming units; also recorded: greatly reduced
killing of C. albicans by human neutrophils [2]: enhanced killing of C. albicans by human neutrophils
cAMP content of C. albicans (cAMP): enhanced cAMP content in the yeast
increase in cAMP compared with forskolin (cAMP): same order of magnitude as that induced by equimolar forskolin
HIV-1 replication (HIV-1): inhibits HIV-1 replication in acutely and chronically infected monocytes

[Nle^4,D-Phe^7]-α-MSH
potency in reducing fever relative to the parent peptide [3]: approximately 10 times
